This is an account of results in patent publication US20160038474A1, “COMPOSITIONS AND METHODS FOR THE MODULATION OF HEMOGLOBIN (S)” (GLOBAL BLOOD THERAPEUTICS, INC., priority 2013, published 2016).

Data set [1] deals with T1, whole blood from homozygous sickle cell patients, Hb(S) (Homo sapiens, UniProt P68871+P69905, E7V).
T1 construct: Oxygen Equilibrium Curves (OEC) of whole blood before and after treatment; from tissue; host or cells: whole blood (or washed red blood cells) of homozygous sickle cell patients
Kind of data set: Reverse Hemox assay (oxygen equilibrium curves), whole blood. Particulars: for Whole Blood OEC (delta p50%): [Hb] 1 mM. In kind it is cell-based. As to the method:
(§1) Oxygen Equilibrium Curves (OEC) of whole blood before and after treatment with different concentrations of compounds 12, 22 and 23 were performed as follows using a HEMOX analyzer (TCS Scientific, New Hope, Pa.). Blood samples from homozygous sickle cell patients were obtained though the Hemoglobinopathy Center at Children's Hospital Oakland Research Institute (CHORI) with Institutional Review Board approval. The hematocrit was adjusted to 20% using autologous plasma and the blood samples were incubated for 1 hour at 37° C. in absence or presence of compounds. 100 μl of these samples were added to 5 mL of Hemox butter (30 mM TES, 130 mM NaCl, 5 mM KCl, pH=7.4) at 37° C. and then transferred to the Hemox sample chamber. The samples were saturated with oxygen by flushing with compressed air for 10 minutes. The samples were then flushed with pure nitrogen and the respective absorbances of oxy- and deoxy-Hb are recorded as a function of the solution pO2. The oxygen equilibrium data were then fitted to the Hill Model to obtain values for p50. The deoxygenation curves for both whole blood alone (control) and whole blood in the presence of the compound were collected with the TCS software.
Results: Table 3 below lists the delta p50% values where “+” indicates a delta p50% of between 0 and 29, “++” indicates a delta p50% of between 30 and 50, and “+++” indicates a delta p50% of 50 or greater.
(§2) Reverse hemox assay was performed essentially as described in Example 2, above, using either washed red blood cells or whole blood.

The next data set has as its system washed red blood cells. Nature of the data set: Reverse Hemox assay (OEC), washed red blood cells. In kind it is cell-based, human. To be noted: [Hb] 1 mM; [cmp] 1 mM. Here is the method: as §1, §2
Results: Table 4, below, indicates the percent change in p50 (delta p50%) for each compound tested. In the washed red blood cells (RBCs), 5-HMF, compound 5, and compound 12 (1 mM compound) gave p50 of 20, 9 and 7 mm Hg, respectively, compared to the control red blood cells (delta p50=30 mm Hg). To determine the effects of plasma proteins on compound activity. OECs were measured in whole blood from sickle cell disease patients. 5-HMF, compound 5, compound 9, and compound 12 gave p50 of 27, 18, 11 and 6 mm Hg, respectively, compared to the control blood p50 of 30 mm Hg.

Data set [2] addresses T2, HbS (Homo sapiens, UniProt P68871+P69905, E7V). Kind of data set: 96-well oxygen dissociation assay (ODA). In kind it is biochemical. An excerpt:
Results: Table 4 below lists the change in oxygen affinity (Δoxy state). After two hours of passive deoxygenation, compound 12, at an equimolar concentration to Hb, increased the Hb oxygen affinity by 6-fold.

Data set [3] deals with sickle cell disease patient whole blood (ssRBCs). Nature of the data set: Viscosity assay, hypoxic sickle cell blood. In kind it is cell-based, human. Particulars: [Hb] 1.5 mM, two hours of hypoxia. Here is the method:
Sickle cell disease patients develop anemia as a means for the circulatory system to compensate for increase in blood viscosity caused by the non-deformable sickle cell red blood cells (ssRBCs). The effects of 5-HMF, compound 5, compound 9, or compound 12 were tested on sickle cell disease patient blood rheology to determine if these compounds decrease the viscosity of ssRBCs that have undergone hypoxia. Using blood from patients with sickle cell disease, whole blood (30% hematocrit, ˜1.5 mM Hb) was incubated with 5-HMF, compound 5, compound 9, or compound 12 during exposure to two hours of hypoxia (2.4% 02). A cone-plate viscometer was used to measure the viscosity at shear rates ranging from 60 s^−1 to 415 s^−1.

Data set [4] deals with T2, HbS. Kind of data set: 96-well oxygen dissociation assay (ODA). In kind it is biochemical. To be noted: [Hb] 3 μM; [cmp] 1 μM.
Data set [5] in a line: Pharmacokinetics after single dose of GBT440 (FIG. 1), rat. In kind it is in vivo. The text has this: (§3) FIG. 1 graphically illustrates the high oral bioavailability, sustained exposure and dramatic RBC partitioning following single dose of GBT440. Certain relevant pharmacokinetic parameters are tabulated below:
(§4) FIG. 1 in parts A, B, and C graphically illustrates the high in vivo oral bioavailability, sustained exposure and the high RBC partitioning following single dose of GBT440.

Data set [6] is described as follows: Pharmacokinetics after single dose of GBT440 (FIG. 1), dog. It is filed as in vivo.
Text: as §3, §4

A short description of data set [7]: Pharmacokinetics after single dose of GBT440 (FIG. 1), monkey. In kind it is in vivo.
Text: as §3, §4

A value given as a limit tells only on which side of the number the result lay.

In the case of `COc1cc(C=O)c(OCc2cccnc2-c2ccnn2C(C)C)cn1` [Compound 9, 2-methoxy-5-[[2-(2-propan-2-ylpyrazol-3-yl)pyridin-3-yl]methoxy]pyridine-4-carbaldehyde], the “Whole Blood OEC (delta p50%)” value in data set [1] ([cmp] 1 mM) is given as 63%; in data set [1] ([cmp] 3 mM), over 80%. In data set [1] (whole blood from sickle cell disease patients, control blood p50 30 mm Hg), this molecule had a p50 of 11 mm Hg. For the same molecule, in the data set with washed red blood cells, the “Washed RBC OEC (delta p50%)” value was 69%. Moreover, on HbS [2] (96-well ODA), the “potency at increasing the oxygen affinity of HbS compared with 5-HMF” value is reported as “more potent at increasing the oxygen affinity of HbS than 5-hydroxy furfural”. For the same molecule, the “Hb in ODA (Δoxy state)” value on HbS [2] ([Hb] 3 μM, [cmp] 3 μM) is 23; on HbS [4], 6. Moreover, the figures for the “Viscosity (ΔcP)” value in data set [3] ([cmp] 1.6 mM) and in data set [3] ([cmp] 8 mM) were 2.3 cP and over 2.4 cP, respectively.

In general, bioavailability refers to dose-corrected exposure relative to a reference, in per cent. As for `CC(C)n1nccc1-c1ncccc1COc1cccc(O)c1C=O` [GBT440], the bioavailability is 59.8% in data set [5] (in vivo, IV 1.6 mg/kg, PO 7.2 mg/kg, read-out: Oral bioavailability (% F)); 36.6% in data set [6] (in vivo, IV 1 mg/kg, PO 2.5 mg/kg, read-out: Oral bioavailability (% F)); 36.1% in data set [7] (in vivo, IV 1 mg/kg, PO 4.25 mg/kg, read-out: Oral bioavailability (% F)). The blood plasma ratio in data set [5] (whole blood and plasma) was 69; in data set [6] (whole blood and plasma), 74.4; in data set [7] (whole blood and plasma), 70.9.
